Laboratory results: patent US9040519B2, “Fused tetracyclic pyrido [4,3-B] indole and pyrido [3,4-B] indole derivatives and methods of use” (Medivation Technologies, Inc., priority 2010, dated 2015)

Assays:
[1] = target: T1, human recombinant serotonin (5-Hydroxytryptamine) 5-HT6 receptor (Homo sapiens, UniProt P50406); assay: Serotonin 5-HT6 radioligand binding ([3H]LSD); details: compound at 0.1 μM; HeLa cells; read-out: Percentage inhibition of ligand binding, Serotonin 5-HT6
T1 construct: expressed in transfected cells; host or cells: HeLa
Experimental: To evaluate in radioligand binding assays the activity of compounds of the invention, human recombinant serotonin (5-Hydroxytryptamine) 5-HT6 receptor expressed in human HeLa cells (Monsma, F. Jr. et al, Mol. Pharmacol. 43:320, 1993) in a modified Tris-HCl buffer (50 mM Tris-HCl, pH 7.4, 150 mM NaCl, 2 mM Ascorbic Acid, 0.001% BSA) was used. Compounds of the invention were incubated with 1.5 nM [3H]Lysergic acid diethylamide (LSD) for 120 min at 37° C. Non-specific binding was estimated in the presence of 5 μM Serotonin (5-HT). Receptor proteins were filtered and washed, the filters were then counted to determine [3H]LSD specifically bound. Compounds were screened at 1 μM or lower, using 1% DMSO as vehicle. Biochemical assay results are presented as the percent inhibition of specific binding in Table 4.

[2] = target: T2, rat adrenergic α1A receptor (Rattus norvegicus, UniProt P43140); assay: Adrenergic α1A radioligand binding ([3H]Prazosin); details: compound at 0.1 μM; Wistar Rat submaxillary glands; read-out: Percentage inhibition of ligand binding, Adrenergic α1A
T2 construct: rat adrenergic α1A receptor obtained from Wistar Rat submaxillary glands; from tissue; host or cells: Wistar rat submaxillary glands
T2 sequence (P43140 1-466): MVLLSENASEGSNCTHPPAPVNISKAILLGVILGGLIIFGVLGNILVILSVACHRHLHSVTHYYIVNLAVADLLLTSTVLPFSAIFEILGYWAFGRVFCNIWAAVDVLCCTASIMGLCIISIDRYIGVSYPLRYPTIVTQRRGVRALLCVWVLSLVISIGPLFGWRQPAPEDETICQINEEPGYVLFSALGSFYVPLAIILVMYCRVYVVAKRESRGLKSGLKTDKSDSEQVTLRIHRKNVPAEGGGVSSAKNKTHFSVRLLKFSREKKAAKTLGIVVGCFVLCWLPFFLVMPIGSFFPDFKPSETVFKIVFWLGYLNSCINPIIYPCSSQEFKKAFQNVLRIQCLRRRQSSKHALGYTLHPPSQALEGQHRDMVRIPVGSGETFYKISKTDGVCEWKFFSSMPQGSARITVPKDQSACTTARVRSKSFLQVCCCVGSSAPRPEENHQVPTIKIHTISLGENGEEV
Experimental: To evaluate in radioligand binding assays the activity of compounds of the invention, rat adrenergic α1A receptor obtained from Wistar Rat submaxillary glands (Michel, A. et al, Br. J. Pharmacol. 98:883, 1989) in a modified Tris-HCl buffer (50 mM Tris-HCl buffer, pH 7.4, 0.5 mM EDTA) was used. Compounds of the invention were incubated with 0.25 nM [^3H]Prazosin for 60 min at 25° C. Non-specific binding was estimated in the presence of 10 μM phentolamine. Receptor proteins were filtered and washed, the filters were then counted to determine [^3H]Prazosin specifically bound. Compounds of the invention were screened at 1 μM or lower, using 1% DMSO as vehicle. Biochemical assay results are presented as the percent inhibition of specific binding in Table 3.

[3] = target: T3, human recombinant serotonin (5-Hydroxytryptamine) 5-HT5A receptor (Homo sapiens, UniProt P47898); assay: Serotonin 5-HT5A radioligand binding ([3H]LSD); details: compound at 0.1 μM; CHO K1 cells; read-out: Percentage inhibition of ligand binding, Serotonin 5-HT5A
T3 construct: expressed in transfected cells; host or cells: CHO-K1
Experimental: To evaluate in radioligand binding assays the activity of compounds of the invention, human recombinant serotonin (5-Hydroxytryptamine) 5-HT5A receptor expressed in Chinese hamster ovary (CHO) K1 cells (Rees, S. et al, FEBS Lett. 355:242, 1994) in a modified Tris-HCl buffer (50 mM Tris-HCl, pH 7.4, 10 mM MgCl2, 0.5 mM EDTA) was used. Compounds of the invention were incubated with 1.7 nM [^3H]Lysergic acid diethylamide (LSD) for 60 min at 37° C. Non-specific binding was estimated in the presence of 100 μM Serotonin (5-HT). Receptor proteins were filtered and washed, the filters were counted to determine [^3H]LSD specifically bound. Compounds were screened at 1 μM or lower, using 1% DMSO as vehicle. Biochemical assay results are presented as the percent inhibition of specific binding in Table 4.

[4] = target: T4, human recombinant serotonin (5-Hydroxytryptamine) 5-HT2C receptor (Homo sapiens, UniProt P28335); assay: Serotonin 5-HT2C radioligand binding ([3H]Mesulergine); details: compound at 0.1 μM; CHO K1 cells; read-out: Percentage inhibition of ligand binding, Serotonin 5-HT2C
T4 construct: expressed in transfected cells; host or cells: CHO-K1
T4 sequence (P28335 33-458): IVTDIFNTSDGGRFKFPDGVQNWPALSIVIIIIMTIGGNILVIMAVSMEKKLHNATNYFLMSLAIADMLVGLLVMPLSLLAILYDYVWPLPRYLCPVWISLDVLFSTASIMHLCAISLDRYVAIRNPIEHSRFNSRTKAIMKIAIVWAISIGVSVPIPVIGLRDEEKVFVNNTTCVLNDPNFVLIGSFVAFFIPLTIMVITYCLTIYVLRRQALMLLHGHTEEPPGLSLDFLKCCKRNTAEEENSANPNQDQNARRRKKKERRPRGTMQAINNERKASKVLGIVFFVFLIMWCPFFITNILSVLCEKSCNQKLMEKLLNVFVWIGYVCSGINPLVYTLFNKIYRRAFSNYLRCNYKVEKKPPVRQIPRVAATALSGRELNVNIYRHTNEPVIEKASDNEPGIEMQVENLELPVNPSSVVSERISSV
Experimental: To evaluate in radioligand binding assays the activity of compounds of the invention, human recombinant serotonin (5-Hydroxytryptamine) 5-HT2C receptor expressed in Chinese hamster ovary (CHO) K1 cells (Wolf, W. et al, J. Neurochem. 69:1449, 1997) in a modified Tris-HCl buffer (50 mM Tris-HCl, pH 7.4, 0.1% Ascorbic Acid, 10 μM Pargyline) was used. Compounds of the invention were incubated with 1 nM [^3H]Mesulergine for 60 min at 25° C. Non-specific binding was estimated in the presence of 1 μM Mianserin. Receptor proteins were filtered and washed, the filters were then counted to determine [^3H]Mesulergine specifically bound. Compounds were screened at 1 μM or lower, using 1% DMSO as vehicle. Biochemical assay results are presented as the percent inhibition of specific binding in Table 4.

T3 sequence (P47898 whole entry): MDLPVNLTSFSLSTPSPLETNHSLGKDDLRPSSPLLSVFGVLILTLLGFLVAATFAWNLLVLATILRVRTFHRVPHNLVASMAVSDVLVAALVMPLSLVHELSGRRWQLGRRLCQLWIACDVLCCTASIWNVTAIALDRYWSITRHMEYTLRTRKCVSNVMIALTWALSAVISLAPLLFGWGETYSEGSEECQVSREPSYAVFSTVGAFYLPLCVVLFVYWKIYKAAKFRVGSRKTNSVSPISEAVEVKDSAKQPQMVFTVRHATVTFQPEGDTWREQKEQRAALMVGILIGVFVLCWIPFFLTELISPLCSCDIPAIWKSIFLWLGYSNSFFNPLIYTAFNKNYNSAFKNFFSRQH
T1 sequence (P50406 whole entry): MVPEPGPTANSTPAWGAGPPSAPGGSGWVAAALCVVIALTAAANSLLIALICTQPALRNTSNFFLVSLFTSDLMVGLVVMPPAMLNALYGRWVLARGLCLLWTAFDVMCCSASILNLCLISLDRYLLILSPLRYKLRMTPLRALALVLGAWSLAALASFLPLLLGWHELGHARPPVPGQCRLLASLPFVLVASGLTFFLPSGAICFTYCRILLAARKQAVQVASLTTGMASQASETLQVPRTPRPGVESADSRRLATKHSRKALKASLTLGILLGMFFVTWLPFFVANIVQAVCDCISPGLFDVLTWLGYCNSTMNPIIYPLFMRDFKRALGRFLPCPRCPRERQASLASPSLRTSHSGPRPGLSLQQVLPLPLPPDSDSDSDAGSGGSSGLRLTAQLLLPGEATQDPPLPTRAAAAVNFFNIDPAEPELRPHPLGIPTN

**Q.** What does the source list for `Cc1ccc2c(c1)c1c3n2C(c2ccccc2)=CCC3(C)CN(C)C1` (stereo not drawn) [Compound 10, 2,3a,10-trimethyl-6-phenyl-2,3,3a,4-tetrahydro-1H-indolo[3,2,1-ij][1,6]naphthyridine]?
**A.** inhibition at 0.1 µM [1]: 7%; inhibition at 0.1 µM [2]: -4%; inhibition at 0.1 µM [3]: -8%; inhibition at 0.1 µM [4]: 17%

**Q.** For `Cc1ccc2c(c1)c1c3n2CC(c2ccncc2)=CCC3(C)CN(C)C1` (stereo not drawn) [Compound 11, 2,3a,10-trimethyl-6-pyridin-4-yl-1,2,3,3a,4,7-hexahydro-2,7a-diaza-cyclohepta[jk]fluorene], which inhibition at 0.1 µM [1] is on record?
**A.** 5%

**Q.** And the inhibition at 0.1 µM [2]?
**A.** 25%

**Q.** And the inhibition at 0.1 µM [3]?
**A.** 9%

**Q.** And the inhibition at 0.1 µM [4]?
**A.** 7%

**Q.** What does the source list for `Cc1ccc2c(c1)c1c3n2C(c2ccccc2)CCC3(C)CN(C)C1` (stereo not drawn) [Compound 12, 2,3a,10-trimethyl-6-phenyl-2,3,3a,4,5,6-hexahydro-1H-indolo[3,2,1-ij][1,6]naphthyridine]?
**A.** inhibition at 0.1 µM [1]: 21%; inhibition at 0.1 µM [2]: 12%; inhibition at 0.1 µM [3]: -21%; inhibition at 0.1 µM [4]: 11%
